# According to patent US7300930B2, “Therapeutic acridone and acridine compounds” (Cancer Research Technology Limited, priority 2000, dated 2007):
# Legend:
# [1] = Growth inhibition, sulforhodamine B (SRB) assay, CH1; assay type: cell-based; settings: human, CH1 ovarian carcinoma cells, CH1, 96 hr incubation, tested as salts, read-out: Cytotoxicity - IC50 CH1
# Method: (§1) Growth inhibition was measured in three human ovarian carcinoma cell lines (A2780, CH1, and SKOV-3) and one human cervix carcinoma cell line (A431) using the sulforhodamine B (SRB) assay. Briefly, between 3000 and 6000 cells were seeded into the wells of 96-well microtiter plates and allowed to attach overnight. Compounds (acid addition and quaternary dimethiodide salts) were dissolved at 500 μM in water and immediately added to wells in quadruplicate at final concentrations of 0.05, 0.25, 1, 5 and 25 μM. Following an incubation period of 96 hr, remaining cells were fixed with ice-cold 10% w/v trichloroacetic acid (30 min) and stained with 0.4% SRB in 1% v/v acetic acid (15 min). Mean absorbance at 540 nm for each drug concentration was expressed as a percentage of the control untreated well absorbance, and IC50 values (concentration required to inhibit cell growth by 50%) were determined for each agent.
# human telomerase = settings: as described by Read et al., April 2001; cited from earlier work
# [2] = Growth inhibition, sulforhodamine B (SRB) assay, SKOV-3; assay type: cell-based; settings: human, SKOV-3 ovarian carcinoma cells, SKOV-3, 96 hr incubation, tested as salts, read-out: Cytotoxicity - IC50 SKOV-3
# Method: as §1
# telomerase = telomerase (Homo sapiens, UniProt O14746); experiment: Modified telomeric repeat amplification protocol (TRAP) assay, cell-free; assay type: biochemical; settings: extracts from A2780 cells, tested as salts, read-out: telIC50 (Telomerase Inhibitory Activity)
# telomerase, sequence (O14746 whole entry): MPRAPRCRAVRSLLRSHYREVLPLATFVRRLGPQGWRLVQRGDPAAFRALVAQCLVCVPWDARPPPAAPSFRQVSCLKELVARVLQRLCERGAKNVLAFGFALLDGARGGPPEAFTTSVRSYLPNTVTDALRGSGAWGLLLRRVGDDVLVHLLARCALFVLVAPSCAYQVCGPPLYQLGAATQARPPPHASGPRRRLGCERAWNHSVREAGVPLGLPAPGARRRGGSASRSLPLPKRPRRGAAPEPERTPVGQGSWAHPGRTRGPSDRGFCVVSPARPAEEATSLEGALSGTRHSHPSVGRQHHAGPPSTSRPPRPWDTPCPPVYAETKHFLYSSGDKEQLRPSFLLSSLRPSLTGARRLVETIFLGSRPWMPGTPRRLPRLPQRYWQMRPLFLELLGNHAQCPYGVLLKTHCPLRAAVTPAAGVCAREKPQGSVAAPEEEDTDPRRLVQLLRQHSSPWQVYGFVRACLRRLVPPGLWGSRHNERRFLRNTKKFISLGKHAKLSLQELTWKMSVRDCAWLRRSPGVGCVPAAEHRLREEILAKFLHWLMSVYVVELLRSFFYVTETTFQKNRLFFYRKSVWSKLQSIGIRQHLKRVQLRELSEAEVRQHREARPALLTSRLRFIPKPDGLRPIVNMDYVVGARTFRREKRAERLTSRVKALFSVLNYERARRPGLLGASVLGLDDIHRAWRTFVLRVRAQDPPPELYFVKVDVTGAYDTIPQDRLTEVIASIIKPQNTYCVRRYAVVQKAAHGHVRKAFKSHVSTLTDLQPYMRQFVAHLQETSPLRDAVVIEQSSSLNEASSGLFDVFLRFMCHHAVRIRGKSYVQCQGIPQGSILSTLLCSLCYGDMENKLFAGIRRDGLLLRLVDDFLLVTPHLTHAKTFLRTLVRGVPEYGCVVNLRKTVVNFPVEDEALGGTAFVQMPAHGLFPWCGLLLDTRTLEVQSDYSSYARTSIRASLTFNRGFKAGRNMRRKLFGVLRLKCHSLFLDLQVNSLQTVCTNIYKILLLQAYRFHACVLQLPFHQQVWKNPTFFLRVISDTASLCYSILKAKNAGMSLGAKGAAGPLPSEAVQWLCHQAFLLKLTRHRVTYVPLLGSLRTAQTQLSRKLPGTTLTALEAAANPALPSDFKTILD
# Method: The ability of compounds to inhibit telomerase in a cell-free assay was assessed with a modified TRAP assay using extracts from exponentially growing A2780 human ovarian carcinoma cells. The TRAP assay was performed in 2 steps: (a) telomerase-mediated extension of the forward primer (TS: 5′-AATCCGTCGAGCAGAGTT (SEQ ID NO:3), Oswel Ltd., Southampton, UK) contained in a 40 µL reaction mix comprising TRAP buffer (20 mM Tris-HCl (pH 8.3), 68 mM KCl, 1.5 mM MgCl2, 1 mM EGTA, 0.05% v/v Tween 20), 0.05 μg bovine serum albumin, 50 μM of each deoxynucleotide triphosphate, 0.1 μg TS primer, and 3 μCi of [α-^32P]dCTP (Amersham plc, UK). Protein (40 ng or 20 ng) was then incubated with the reaction mix+agent (acid addition and quaternary dimethiodide salts) at final concentrations of up to 50 μM for 20 min at 25° C. A lysis buffer (no protein) control, heat-inactivated protein control, and 50% protein (20 ng or 10 ng) control were included in each assay; and (b) while heating at 80° C. in a PCR block of a thermal cycler (Hybaid, UK) for 5 min to inactivate telomerase activity, 0.1 μg of reverse CX primer (3′-[…]-5′ (SEQ ID NO:4)) and 2 Units of Taq DNA polymerase (“red hot”, Advanced Biotechnologies) were added. A 3-step PCR was then performed: 94° C. for 30 s, 50° C. for 30 s, and 72° C. for 1 min for 31 cycles. Telomerase-extended PCR products in the presence or absence of compounds were then determined either by electrophoretic separation using 8% w/w acrylamide denaturing gels and analysis by phosphorimaging or autoradiography, or by harvesting on Whatman filters (25 mm glass microfibre) and analysis by liquid scintillation counting.
# [3] = Growth inhibition, sulforhodamine B (SRB) assay, A431; assay type: cell-based; settings: human, A431 cervix carcinoma cells, A431, 96 hr incubation, tested as salts, read-out: Cytotoxicity - IC50 A431
# Method: as §1
# [4] = Growth inhibition, sulforhodamine B (SRB) assay, A2780; assay type: cell-based; settings: human, A2780 ovarian carcinoma cells, A2780, 96 hr incubation, tested as salts, read-out: Cytotoxicity - IC50 A2780
# Method: as §1
Compound,IC50 at 96 h [1],in vitro inhibitory activity against human telomerase (human telomerase),IC50 at 96 h [2],IC50 (telomerase),IC50 at 96 h [3],IC50 at 96 h [4]
"CN(C)c1ccc(Nc2c3ccc(NC(=O)CCN4CCCC4)cc3nc3cc(NC(=O)CCN4CCCC4)ccc23)cc1 [BR-ACO-19, N-{9-[4′-(N,N-Dimethylamino)phenylamino]}-3,6-bis(3-pyrrolidinopropionamido)acridine]",10.1 µM,potent in vitro inhibitory activity,13 µM,0.095 µM,15.8 µM,10 µM
"CSc1cccc(Nc2c3ccc(NC(=O)CCN4CCCC4)cc3nc3cc(NC(=O)CCN4CCCC4)ccc23)c1 [JC-ACI-5, N-{9-[3′-Methylsulfanyl-phenylamino]}-3,6-bis(3-Pyrrolidinopropionamido)acridine]",0.6 µM,–,3.2 µM,0.1 µM,1.3 µM,2.8 µM
"CN(C)c1ccc(Nc2c3ccc(NC(=O)CCN4CC5(C)CC4CC(C)(C)C5)cc3nc3cc(NC(=O)CCN4CC5(C)CC4CC(C)(C)C5)ccc23)cc1 [JH-ACI-103, N-{9-[4′-(N,N-Dimethylamino)phenylamino]}-3,6-bis[(1,3,3-trimethyl-6-azabicyclo[3.2.1]-octanamino)propionamido]-acridine]",3.2 µM,–,2 µM,0.14 µM,2.5 µM,1 µM
"CN(C)c1cccc(Nc2c3ccc(NC(=O)CCN4CCCC4)cc3nc3cc(NC(=O)CCN4CCCC4)ccc23)c1 [JH-ACI-78, N-{9-[3′-(N,N-Dimethylamino)phenylamino]}-3,6-bis(3-pyrrolidinopropionamido)acridine]",2 µM,–,4 µM,0.1 µM,2 µM,7.9 µM
"Nc1ccccc1Nc1c2ccc(NC(=O)CCN3CCCC3)cc2nc2cc(NC(=O)CCN3CCCC3)ccc12 [JH-ACI-76, N-[9-(2′-(Amino)phenylamino)]-3,6-bis(3-pyrrolidinopropionamido)acridine]",10 µM,–,15.8 µM,0.02 µM,7.1 µM,11 µM
"O=C(CCN1CCC(O)CC1)Nc1ccc2nc3ccc(NC(=O)CCN4CCC(O)CC4)cc3c(O)c2c1 [JM-ACO-09, 2,7-Bis[3-(4-hydroxypiperidino)propionamido]-9(10H)-acridone]",> 25 µM,–,> 25 µM,1.58 µM,> 25 µM,> 25 µM
"CN1CCCC1CCNc1c2ccc(NC(=O)CCN3CCCC3)cc2nc2cc(NC(=O)CCN3CCCC3)ccc12 (centres unmarked) [SB-ACI-12, N-{9-[2-(2′-Aminoethyl)-1-methylpyrrolidino]}-3,6-bis(3-pyrrolidinopropionamido)acridine]",> 25 µM,–,> 25 µM,0.018 µM,≥ 25 µM,> 25 µM
"O=C(CCN1CCCC1)Nc1ccc2c(NC3CC3)c3ccc(NC(=O)CCN4CCCC4)cc3nc2c1 [JM-ACI-14, N-[9-(Cyclopropylamino)]-3,6-bis(3-pyrrolidinopropionamido)acridine]",> 25 µM,–,> 25 µM,0.05 µM,> 25 µM,19 µM
"Nc1ccc(Nc2c3ccc(NC(=O)CCN4CCCC4)cc3nc3cc(NC(=O)CCN4CCCC4)ccc23)cc1 [BR-ACO-20, N-[9-(4′-Aminophenylamino)]-3,6-bis(3-pyrrolidinopropionamido)acridine]",> 25 µM,potent in vitro inhibitory activity,> 25 µM,0.06 µM,–,> 25 µM
"Nc1ccc(Nc2c3ccc(NC(=O)CCN4CCCC4)cc3nc3ccc(NC(=O)CCN4CCCC4)cc23)cc1 [JH-ACI-105, N-{9-[4′-(Amino)phenylamino]}-2,6-bis(3-pyrrolidinopropionamido)acridine]",15.8 µM,–,> 25 µM,0.08 µM,> 25 µM,> 25 µM
"O=C(CCN1CCCC1)Nc1ccc2c(NCc3cccnc3)c3ccc(NC(=O)CCN4CCCC4)cc3nc2c1 [SB-ACI-13, N-[9-(Pyridin-3′-yl-methylamino)]-3,6-bis(3-pyrrolidinopropionamido)acridine]",> 25 µM,–,> 25 µM,0.066 µM,> 25 µM,> 25 µM
"CC(=O)Nc1cccc(Nc2c3ccc(NC(=O)CCN4CCCC4)cc3nc3cc(NC(=O)CCN4CCCC4)ccc23)c1 [SB-ACI-14, N-{9-[(3′-Acetamido)aminophenyl]}-3,6-bis(3-pyrrolidinopropionamido)acridine]",> 25 µM,–,> 25 µM,0.1 µM,> 25 µM,> 25 µM
"CC1(C)CC2CC(C)(CN2CCC(=O)Nc2ccc3c(Nc4ccc(N)cc4)c4ccc(NC(=O)CCN5CC6(C)CC5CC(C)(C)C6)cc4nc3c2)C1 [JH-ACI-101, N-{9-[4′-(Amino)phenylamino]}-3,6-bis[(1,3,3-trimethyl-6-azabicyclo[3.2.1]-octanamino)propionamido]-acridine]",2.3 µM,–,1.2 µM,0.16 µM,2.5 µM,1.6 µM
"CN(C)CCCNc1c2ccc(NC(=O)CCN3CCCC3)cc2nc2cc(NC(=O)CCN3CCCC3)ccc12 [JH-ACI-65, N-{9-[3-(N,N-Dimethyl)aminopropylamino]}-3,6-bis(3-pyrrolidinopropionamido)acridine]",17 µM,–,15.8 µM,0.06 µM,> 25 µM,> 25 µM
"O=C(CCN1CCCC1)Nc1ccc2c(NC3CCCCCC3)c3ccc(NC(=O)CCN4CCCC4)cc3nc2c1 [JH-ACI-88, N-[9-(Cycloheptylamino)]-3,6-bis(3-pyrrolidinopropionamido)acridine]",2.8 µM,–,9.3 µM,0.21 µM,3.2 µM,3.2 µM
"O=C(CCN1CCCC1)Nc1ccc2c(NCCN3CCCCC3)c3ccc(NC(=O)CCN4CCCC4)cc3nc2c1 [JH-ACI-69, N-[9-(2-Piperidin-1-yl-ethylamino)]-3,6-bis(3-pyrrolidinopropionamido)acridine]",> 25 µM,–,> 25 µM,0.05 µM,11.2 µM,12.6 µM
"O=C(CCN1CCCC1)Nc1ccc(Nc2c3ccc(NC(=O)CCN4CCCC4)cc3nc3cc(NC(=O)CCN4CCCC4)ccc23)cc1 [JC-ACI-9, N-{9-[4′-(3-Pyrrolidin-1-yl-propionylamino)-phenylamino]}-3,6-bis(3-pyrrolidinopropionamido)acridine]",20 µM,–,> 25 µM,0.012 µM,20 µM,> 25 µM
